Results from US20230346905A1, “P[…] AGAINST […] ME[…] […] MEN A ANTIGEN” (GlaxosmithKline Biologicals SA, priority 2020, published 2023).
“Also recorded” adds a separate entry of the source.

Assays:
[1] = DSC, cited from earlier work; for Tm of the N-terminal domain: Johnson et al. 2012
anti-carbaMenA DP8 serum = test: Competitive ELISA of anti-carbaMenA DP8 serum; type: binding, BALB/c female mice
Method: (§1) Conjugates prepared as previously described from sized MenA polysaccharide with avDP8.5 and ˜15 were used as controls.
(§2) Mice received three subcutaneously (s.c.) doses (2 μg on saccharide base), two weeks apart. The neo-glycoconjugate induced an immune response at week 3, as observed by assaying the sera elicited by the conjugate against the same product coated on ELISA plates. At the serum dilutions tested no anti-CRM197 antibodies were detectable. Each of the conjugates gave antibodies recognizing the conjugated antigen and the specificity of this recognition was confirmed by competitive ELISA.

anti-deOAc MenA serum = test: Competitive ELISA against anti-deOAc MenA serum; type: binding
Method: This corroborated the propensity of carba DP8 to anti-MenA antibody binding. The different fragments were then tested against an anti-deOAc MenA serum.

[2] = system: anti-MenA polyclonal serum; test: Competitive ELISA with anti-MenA polyclonal serum, CPS as coating; type: binding; conditions: serum from mice immunized with MenA-CRM197 conjugate, FIG. 5B
[3] = system: bactericidal anti-MenA mAb (JW-A1); test: Competitive ELISA with anti-MenA mAb, CPS as coating; type: binding; conditions: FIG. 5A
Text: (FIG. 5C) Competitive SPR of binding between anti-MenA mAb and immobilized biotylinated CPS. MenA CPS and deOAc CPS were the positive controls and the beta-glucan Laminarin was the negative control in A and B. MenA CPS and fragments thereof were used as positive controls and anti-MenC mAb was flown on the chip as negative control in C.
An important prerequisite for the immunogenicity of the carba-analogues is their ability to mimic the natural MenA CPS. To investigate this property in vitro, binding of oligomers with the different length to a bactericidal anti-MenA mAb (JW-A1) in comparison to CPS and a medium length oligomer with avDP ˜15 was tested as described in Giuntini, S. et al., PLoS One, 2012, 7, e34272; Tsang, R. S. et al., Clin. Diagn. Lab. Immunol., 2005, 12, 152-156; and Reyes, F. et al., Biologicals, 2013, 41, 275-278.

MenA CPS = test: Mice immunization, ELISA anti-MenA CPS IgG; type: in vivo, BALB/c mice; conditions: first study, Table 4
Method: as §1, §2
To test the immunogenicity of the conjugated carba DP6 and DP8 analogues with and without random acetylation, groups of eight BALB/c female mice were immunized with the neoglycoconjugates. Conjugated sized MenA polysaccharide was used as control. Mice were immunized with three subcutaneously (s.c.) doses (2 μg on saccharide base) two weeks apart. […]
All mice were housed under specific pathogen-free conditions. […] The antibody response induced by the glycoconjugates has been measured by ELISA. […] Finally, plates were incubated for 30 min at room temperature and read at 405 nm using the plate reader Spectramax 190. Sera titers were expressed as the reciprocal of sera dilution corresponding to a cut-off OD=1. […]

Substance	Tm of the N-terminal domain [1] [°C]	Tm of C-terminal domains [1] [°C]	inhibition of the binding of the anti-carbaMenA DP8 serum (in words) (anti-carbaMenA DP8 serum)	IC50 (anti-deOAc MenA serum) [µM]	performance as inhibitor [2]	IC50 higher compared to the native CPS [3]	recognition of / binding to the anti-MenA mAb ([3]; competitive ELISA, non-acetylated carbaMenA oligomers as inhibitors, CPS coating)	anti-MenA CPS response lower than the benchmark MenA-CRM197 conjugate (MenA CPS) [fold lower]
wild-type v2: wild-type meningococcal fHbp variant 2 from strain 2996	≤ 40	≥ 80						
1-O-octa-(2-Acetamido-2-deoxy-5a-carba-α-D-mannopyranosyl-1-O-phosphoryl)-6-hexyl-amine [carba DP8]			to a greater extent than its conjugated form	15.9	performed as inhibitor comparably to the deOAc CPS	4 orders of magnitude	binding was observed; also recorded: clearly binding to anti-MenA antibodies	2
wild-type v3: wild-type meningococcal fHbp variant 3 from strain M1239	≤ 60	≥ 80						
